According to US9062045B2, “Triazolopyridine compounds” (Novartis AG, priority 2012, dated 2015):
Counter-ions that a name gives are not always drawn. Like-named read-outs stand apart in the source and are kept apart here.

How the values were obtained:
[1] = molecular target: c-Met receptor tyrosine kinase, GST-c-MET (969-1390) (Homo sapiens (Human), UniProt P08581); conditions: read-out: c-Met Biochem IC50
human platelet PDE3 = human platelet PDE3 (Homo sapiens (Human), UniProt Q14432); assay: hPDE3 assay ([3H]cAMP scintillation proximity assay); type: biochemical; conditions: human platelet PDE3
Description: Here, compounds of formula I were screened for their ability to inhibit human PDE3 in the assay based on Amersham Pharmacia Biotech's Phosphodiesterase (PDE) [^3H]-adenosine 3′,5′ cyclic phosphate ([^3H]cAMP) Scintillation Proximity Assay (SPA). The assay is based on the hydrolysis of [^3H]cAMP, by human platelet PDE3, to [^3H]5′-adenoside monophosphate (5′-AMP). The [^3H]5′-AMP is specifically captured by yttrium silicate SPA beads in the presence of zinc sulphate.
• Optiplate and TopSeal-S (Can berra Packard) • Human platelet PDE3 (partially purified from human platelets)—a titration curve of human platelet PDE3 activity was performed to optimise the concentration of hPDE3 required in the assay. • Yttrium silicate SPA beads and [^3H]cAMP (Amersham) • Tris-Base, magnesium chloride, ethylenediaminetetraacetic acid (di-sodium salt), bovine serum albumin BSA and cAMP (Sigma) Solutions and Buffers: • Assay buffer: 7.56 g Tris-Base was dissolved in approximately 800 mL distilled water and the pH adjusted to 7.5 with 1 M hydrochloric acid. 10.3 mL 1 M magnesium chloride and 4.25 mL 0.5 M EDTA were added. The solution was made to 1 L with distilled water and stored at 4° C. On day of use 18 mL of the above solution was removed and 2 mL 5 mg/ml BSA were added thereto. • Enzyme buffer: 10 mM Tris-HCl at pH 7.5, 1 mM EDTA • Yttrium silicate SPA beads: 1 vial was reconstituted in 28 mL distilled water and stored at 4° C. Assay
The assay was performed in a final volume of 100 μL per well of an Optiplate (Canberra Packard). A 10 μL aliquot of the test compound dissolved in DMSO/distilled water was placed in a well of an Optiplate plate, followed by the addition of 80 μL ‘Assay mix’ (5.5 μL [^3H]cAMP and 88 μL “cold” cAMP were diluted to 8.8 mL using assay buffer). The reaction was started by adding 10 μL hPDE3 (50 μL stock hPDE3 solution was diluted 50 fold to 2.5 mL using enzyme buffer). The plate was incubated at room temperature for 30 min, the reaction was then terminated by the addition of 50 μL Yttrium silicate SPA beads (pre-warmed to room temperature) to all wells. […] The plate was sealed using TopSeal-S according to the manufacturer's instructions and counted using a Packard TopCount, each well being counted for 1 min. IC50 values were determined using non-linear regression.

[2] = as above; type: biochemical, human; conditions: Table 3-C; title says PDE3, head says c-Met Biochem IC50 [nM]
GTL16 cells = assay: GTL16 cell viability assay (CellTiter Glo); conditions: read-out: GTL-16 Proliferation IC50
[3] = 2 μM ATP, 60 minutes at room temperature

Chain of human platelet PDE3 (Q14432 whole entry): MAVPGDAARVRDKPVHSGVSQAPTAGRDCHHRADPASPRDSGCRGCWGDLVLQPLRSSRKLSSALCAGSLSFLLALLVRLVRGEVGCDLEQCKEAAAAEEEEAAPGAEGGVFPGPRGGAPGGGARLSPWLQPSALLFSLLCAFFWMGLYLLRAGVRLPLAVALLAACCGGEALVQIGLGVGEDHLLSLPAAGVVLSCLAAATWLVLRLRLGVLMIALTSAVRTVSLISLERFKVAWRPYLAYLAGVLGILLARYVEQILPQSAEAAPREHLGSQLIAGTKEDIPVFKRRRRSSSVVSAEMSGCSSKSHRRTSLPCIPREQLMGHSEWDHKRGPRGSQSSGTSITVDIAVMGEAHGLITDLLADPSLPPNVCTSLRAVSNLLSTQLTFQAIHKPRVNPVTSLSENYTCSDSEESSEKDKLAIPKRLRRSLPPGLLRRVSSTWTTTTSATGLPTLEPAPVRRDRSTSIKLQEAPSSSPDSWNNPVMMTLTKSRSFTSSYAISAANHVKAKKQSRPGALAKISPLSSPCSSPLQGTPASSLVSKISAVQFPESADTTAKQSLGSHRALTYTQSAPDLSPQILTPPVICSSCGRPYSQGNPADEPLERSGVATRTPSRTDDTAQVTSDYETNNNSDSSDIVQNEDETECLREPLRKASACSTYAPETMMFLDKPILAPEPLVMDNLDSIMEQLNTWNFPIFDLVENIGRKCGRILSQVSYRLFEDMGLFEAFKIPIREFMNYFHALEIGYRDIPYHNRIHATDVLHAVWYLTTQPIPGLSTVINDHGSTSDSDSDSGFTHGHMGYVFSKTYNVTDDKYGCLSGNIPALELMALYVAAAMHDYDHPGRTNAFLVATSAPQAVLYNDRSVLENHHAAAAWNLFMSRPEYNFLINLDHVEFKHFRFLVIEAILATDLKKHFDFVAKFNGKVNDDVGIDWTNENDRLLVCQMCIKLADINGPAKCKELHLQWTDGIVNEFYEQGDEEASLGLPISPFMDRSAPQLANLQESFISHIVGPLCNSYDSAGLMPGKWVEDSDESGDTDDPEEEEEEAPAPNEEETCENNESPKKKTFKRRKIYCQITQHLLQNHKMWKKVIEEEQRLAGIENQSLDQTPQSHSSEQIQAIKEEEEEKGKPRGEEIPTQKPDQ
Chain of c-Met receptor tyrosine kinase, GST-c-MET (969-1390) (P08581 969-1390): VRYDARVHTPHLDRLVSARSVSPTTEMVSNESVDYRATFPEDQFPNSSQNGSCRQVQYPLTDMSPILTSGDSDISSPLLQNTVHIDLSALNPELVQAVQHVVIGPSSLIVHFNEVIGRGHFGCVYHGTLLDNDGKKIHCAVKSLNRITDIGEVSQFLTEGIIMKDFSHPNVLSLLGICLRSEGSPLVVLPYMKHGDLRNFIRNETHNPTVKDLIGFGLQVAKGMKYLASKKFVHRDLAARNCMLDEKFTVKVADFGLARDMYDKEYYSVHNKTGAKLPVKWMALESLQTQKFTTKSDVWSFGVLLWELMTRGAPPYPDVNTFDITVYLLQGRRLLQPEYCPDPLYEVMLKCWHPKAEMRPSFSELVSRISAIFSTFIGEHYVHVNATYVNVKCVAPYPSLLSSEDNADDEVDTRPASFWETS

| Structure (SMILES) | IC50 [1, 3] [nM] | IC50 (human platelet PDE3) [nM] | IC50 [2] [nM] | IC50 (GTL16 cells; GTL16 cells, 24 hours) [nM] | IC50 [1] [nM] | IC50 (GTL16 cells) [nM] |
| --- | --- | --- | --- | --- | --- | --- |
| C[C@H]1CNCCN1c1cnc2ccc(Sc3nnc4c(F)cc(-c5cnn(C)c5)cn34)cc2c1 [Example 46, (S)-6-(8-Fluoro-6-(1-methyl-1H-pyrazol-4-yl)-[1,2,4]triazolo[4,3-a]pyridin-3-ylthio)-3-(2-methylpiperazin-1-yl)quinoline] | […] | 30000 |  |  |  |  |
| Cn1cc(-c2ccc3nnc(Sc4ccc5ncccc5c4)n3c2)cn1 [Reference Example No. 63, 6-(6-(1-methyl-1H-pyrazol-4-yl)-[1,2,4]triazolo[4,3-a]pyridin-3-ylthio)quinoline] |  |  | 15 |  |  |  |
| C[C@@H]1CN(c2cnc3ccc(Sc4nnc5ccc(-c6cnn(C)c6)cn45)cc3c2)C[C@H](C)N1 [Example 42, 3-((3S,5R)-3,5-Dimethylpiperazin-1-yl)-6-(6-(1-methyl-1H-pyrazol-4-yl)-[1,2,4]triazolo[4,3-a]pyridin-3-ylthio)quinoline] | 4 | 29000 |  | 0.6 |  |  |
| Cn1cc(-c2ccc3nnc(Sc4ccc5ncc(N6CCC(N7CCCCC7)CC6)cc5c4)n3c2)cn1 [Example 30, 3-(1,4′-Bipiperidin-1′-yl)-6-(6-(1-methyl-1H-pyrazol-4-yl)-[1,2,4]triazolo[4,3-a]pyridin-3-ylthio)quinoline] | […] | 25000 |  | […] |  |  |
| C/C(=N\OCCO)c1ccc2nnc(Cc3ccc4ncc(N5CCN(C)CC5)cc4c3)n2n1 [Comparator No. 2, 1-{3-[3-(4-Methyl-piperazin-1-yl)-quinolin-6-ylmethyl]-[1,2,4]triazolo[4,3-b]pyridazin-6-yl}-ethanone O-(2-hydroxy-ethyl)-oxime] |  |  | 4 |  |  |  |
| CC1CN(c2cnc3ccc(Sc4nnc5ccc(-c6cnn(C)c6)cn45)cc3c2)CCO1 (stereo not shown) [Example 35, 2-Methyl-4-(6-(6-(1-methyl-1H-pyrazol-4-yl)-[1,2,4]triazolo[4,3-a]pyridin-3-ylthio)quinolin-3-yl)morpholine] | 4 |  |  | 0.4 |  |  |
| Cn1cc(-c2cc(F)c3nnc(Sc4ccc5ncc(N)cc5c4)n3c2)cn1 [Example 55, 6-(8-Fluoro-6-(1-methyl-1H-pyrazol-4-yl)-[1,2,4]triazolo[4,3-a]pyridin-3-ylthio)quinolin-3-amine hydrochloride] |  | > 30000 |  |  | […] | 1 |
| Cn1cc(-c2ccc3nnc(Sc4ccc5ncc(N)cc5c4)n3c2)cn1 [Example 56, 6-(6-(1-Methyl-1H-pyrazol-4-yl)-[1,2,4]triazolo[4,3-a]pyridin-3-ylthio)quinolin-3-amine hydrochloride] |  | 17000 |  |  | 13 | 33 |
| Cn1cc(-c2cnc3ccc(Sc4nnc5ccc(-c6cnn(CCO)c6)cn45)cc3c2)cn1 [Reference Example No. 73, 2-(4-(3-(3-(1-methyl-1H-pyrazol-4-yl)quinolin-6-ylthio)-[1,2,4]triazolo[4,3-a]pyridin-6-yl)-1H-pyrazol-1-yl)ethanol, reference compound] |  |  | 7 |  | 5 |  |
| C/C(=N\OCCO)c1ccc2nnc(Sc3ccc4ncc(N5CCN(C)CC5)cc4c3)n2c1 [Example 86, (E)-1-(3-(3-(4-methylpiperazin-1-yl)quinolin-6-ylthio)-[1,2,4]triazolo[4,3-a]pyridin-6-yl)ethanone O-2-hydroxyethyl oxime] |  | 27000 |  | 51 |  |  |
| Cn1cc(-c2ccc3nnc(Sc4ccc5ncc(N6CCC(F)(F)CC6)cc5c4)n3c2)cn1 [Example 61, 3-(4,4-Difluoro-piperidin-1-yl)-6-[6-(1-methyl-1H-pyrazol-4-yl)-[1,2,4]triazolo[4,3-a]pyridin-3-ylsulfanyl]-quinoline] |  | 12000 |  | 2 |  |  |
| Cn1cc(-c2ccc3nnc(Sc4ccc5ncc(NC6CCNCC6)cc5c4)n3c2)cn1 [Example 23, 6-(6-(1-Methyl-1H-pyrazol-4-yl)-[1,2,4]triazolo[4,3-a]pyridin-3-ylthio)-N-(piperidin-4-yl)quinolin-3-amine] |  | 30000 |  | 289 |  |  |
| Cn1cc(-c2cc(F)c3nnc(Sc4ccc5ncc(N6CCC(N7CCCCC7)CC6)cc5c4)n3c2)cn1 [Example 31, 3-(1,4′-Bipiperidin-1′-yl)-6-(8-fluoro-6-(1-methyl-1H-pyrazol-4-yl)-[1,2,4]triazolo[4,3-a]pyridin-3-ylthio)quinoline] | 3 | 30000 |  | 0.4 |  |  |
| C[C@@H]1CN(c2cnc3ccc(Sc4nnc5ccc(-c6cnn(C)c6)cn45)cc3c2)CCO1 [Example 35B, (R)-2-Methyl-4-(6-(6-(1-methyl-1H-pyrazol-4-yl)-[1,2,4]triazolo[4,3-a]pyridin-3-ylthio)quinolin-3-yl)morpholine] | 4 |  |  | 4 |  |  |
| Fc1cc(-c2cn[nH]c2)cn2c(Sc3ccc4ncc(N5CCOCC5)cc4c3)nnc12 [Example 58, 4-(6-(8-Fluoro-6-(1H-pyrazol-4-yl)-[1,2,4]triazolo[4,3-a]pyridin-3-ylthio)quinolin-3-yl)morpholine] | […] | 13000 |  | 8 |  |  |
| Cn1cc(-c2ccc3nnc(Sc4ccc5ncc(NC6CCN(C(=O)OC(C)(C)C)CC6)cc5c4)n3c2)cn1 [Example 22, tert-Butyl 4-(6-(6-(1-methyl-1H-pyrazol-4-yl)-[1,2,4]triazolo[4,3-a]pyridin-3-ylthio)quinolin-3-ylamino)piperidine-1-carboxylate] | 19 | 15000 |  | 2 |  |  |
| Cn1cc(-c2ccc3nnc(Sc4ccc5ncc(N6CCN(C7CCCCC7)CC6)cc5c4)n3c2)cn1 [Example 32, 3-(4-Cyclohexylpiperazin-1-yl)-6-(6-(1-methyl-1H-pyrazol-4-yl)-[1,2,4]triazolo[4,3-a]pyridin-3-ylthio)quinoline] | […] | 26000 |  | 4 |  |  |
| Cn1cc(-c2cc(F)c3nnc(Sc4ccc5ncc(N6CCC(O)CC6)cc5c4)n3c2)cn1 [Example 50, 1-(6-((8-Fluoro-6-(1-methyl-1H-pyrazol-4-yl)-[1,2,4]triazolo[4,3-a]pyridin-3-yl)thio)quinolin-3-yl)piperidin-4-ol] |  | 30000 |  | 1 |  |  |
| CN(C)[C@H]1CCN(c2cnc3ccc(Sc4nnc5c(F)cc(-c6cnn(C)c6)cn45)cc3c2)C1 [Example 13, (S)-1-(6-(8-Fluoro-6-(1-methyl-1H-pyrazol-4-yl)-[1,2,4]triazolo[4,3-a]pyridin-3-ylthio)quinolin-3-yl)-N,N-dimethylpyrrolidin-3-amine] |  | 24000 |  | 0.4 |  |  |
| Cn1cc(-c2ccc3nnc(Sc4ccc5ncc(N6CCN(c7ccccc7)CC6)cc5c4)n3c2)cn1 [Example 34, 6-(6-(1-Methyl-1H-pyrazol-4-yl)-[1,2,4]triazolo[4,3-a]pyridin-3-ylthio)-3-(4-phenylpiperazin-1-yl)quinoline] | 45 | 30000 |  | 1 |  |  |
| C[C@H]1CN(c2cnc3ccc(Sc4nnc5ccc(-c6cnn(C)c6)cn45)cc3c2)CCO1 [Example 35A, (S)-2-Methyl-4-(6-(6-(1-methyl-1H-pyrazol-4-yl)-[1,2,4]triazolo[4,3-a]pyridin-3-ylthio)quinolin-3-yl)morpholine] | 5 | 16000 |  | 1 |  |  |
| c1cc2ncc(N3CCOCC3)cc2cc1Sc1nnc2ccc(-c3cn[nH]c3)cn12 [Example 57, 4-(6-(6-(1H-pyrazol-4-yl)-[1,2,4]triazolo[4,3-a]pyridin-3-ylthio)quinolin-3-yl)morpholine] |  | 10000 |  | 10 | […] |  |
| Cn1cc(-c2ccc3nnc(Sc4ccc5ncc(N6CCNCC6)cc5c4)n3c2)cn1 [Example 27, 6-(6-(1-Methyl-1H-pyrazol-4-yl)-[1,2,4]triazolo[4,3-a]pyridin-3-ylthio)-3-(piperazin-1-yl)quinoline] |  | 17000 |  | 4 |  |  |
| C/C(=N\O)c1ccc2nnc(Sc3ccc4ncc(CN5CCOCC5)cc4c3)n2c1 [Example 79, (E)-1-(3-(3-(Morpholin-4-yl-methyl)quinolin-6-ylthio)-[1,2,4]triazolo[4,3-a]pyridin-6-yl)ethanone oxime] | 83 | > 30000 |  | 1140 |  |  |
